Data: ChEMBL document CHEMBL3091347, “Comparison of Multiple Linear Regressions and Neural Networks based QSAR models for the design of new antitubercular compounds” (Eur J Med Chem, 2013)
In brackets after ≈: the same amount, converted by molar mass.

Tests used:
[1] = system: Mycobacterium tuberculosis; assay: Antitubercular activity against Mycobacterium tuberculosis H37Rv; assay type: functional; settings: for MIC: Mycobacterium tuberculosis, H37Rv
[2] = Lipophilicity, log P of the compound; settings: octanol/water
[3] = system: Mycobacterium tuberculosis; assay: Antitubercular activity against Mycobacterium tuberculosis; assay type: functional; settings: for MIC: Mycobacterium tuberculosis

With `C/C(=N\NC(=O)c1ccncc1)c1cccc(CN(Cc2ccccc2)Cc2ccccc2)c1O` the “log(1/MIC)” value [1] was -0.2063, the MIC [1] was 1.61 µg/mL (≈ 3.47 µM) and the logP ([2]; logP) was 4.33.
For `Cc1cc(C(=O)NN)ccn1`, the “log(1/MIC)” value [1] was 0.1045, the MIC [1] was 0.79 µg/mL (≈ 5.23 µM) and the logP ([2]; logP) was -1.67.
For `Cc1ccc(OC/C(N)=N/NC(=O)c2ccncc2)cc1`, the “log(1/MIC)” value [1] was -0.796, the MIC [1] was 6.25 µg/mL (≈ 22 µM) and the logP ([2]; logP) was 1.27.
With `C/C(=N\NC(=O)c1ccncc1)c1cccc(CN(c2ccccc2)c2ccccc2)c1O` the “log(1/MIC)” value [1] was -0.2064, the MIC [1] was 1.61 µg/mL (≈ 3.69 µM) and the logP ([2]; logP) was 4.12.
With `NNC(=O)c1ccnc(N)c1` the “log(1/MIC)” value [1] was -0.3436, the MIC [1] was 2.21 µg/mL (≈ 14.5 µM) and the logP ([2]; logP) was -2.84.
For `NNC(=O)c1ccnc(Cc2ccccc2)c1`, the “log(1/MIC)” value [1] was -0.942, the MIC [1] was 8.75 µg/mL (≈ 38.5 µM) and the logP ([2]; logP) was -0.105.
For `C/C(=N\NC(=O)c1ccncc1)c1cccc(CN2CCN(c3cc4c(cc3F)c(=O)c(C(=O)O)cn4C3CC3)CC2)c1O`, the “log(1/MIC)” value [1] was 0.09913, the MIC [1] was 0.8 µg/mL (≈ 1.34 µM) and the logP ([2]; logP) was 4.2.
For `CCCCN(CCCC)Cc1cccc(/C(C)=N/NC(=O)c2ccncc2)c1O`, the “log(1/MIC)” value [1] was -0.2078, the MIC [1] was 1.61 µg/mL (≈ 4.06 µM) and the logP ([2]; logP) was 4.05.
In the case of `C/C(=N\NC(=O)c1ccncc1)c1cccc(CN2CCNCC2)c1O`, the “log(1/MIC)” value [1] is reported as 0.6866, the MIC [1] is reported as 0.21 µg/mL (≈ 0.594 µM) and the logP ([2]; logP) is reported as 1.05.
With `CCN(CC)Cc1cccc(/C(C)=N/NC(=O)c2ccncc2)c1O` the “log(1/MIC)” value [1] was 0.09061, the MIC [1] was 0.81 µg/mL (≈ 2.38 µM) and the logP ([2]; logP) was 2.09.
With `C/C(=N\NC(=O)c1ccncc1)c1cccc(CN2CCOCC2)c1O` the “log(1/MIC)” value [1] was 0.09122, the MIC [1] was 0.81 µg/mL (≈ 2.29 µM) and the logP ([2]; logP) was 1.61.
For `CCn1cc(C(=O)O)c(=O)c2cc(F)c(N3CCN(Cc4cccc(/C(C)=N/NC(=O)c5ccncc5)c4O)C(C)C3)c(F)c21` (configuration not stated), the “log(1/MIC)” value [1] was 0.09873, the MIC [1] was 0.8 µg/mL (≈ 1.29 µM) and the logP ([2]; logP) was 4.81.
For `COc1cc(C(=O)NN)ccn1`, the “log(1/MIC)” value [1] was -1.408, the MIC [1] was 25.6 µg/mL (≈ 153 µM) and the logP ([2]; logP) was -2.03.
For `Cc1ccccc1OC/C(N)=N/NC(=O)c1ccncc1`, the “log(1/MIC)” value [1] was -1.097, the MIC [1] was 12.5 µg/mL (≈ 44 µM) and the logP ([2]; logP) was 1.27.
For `NNC(=O)c1ccnc(I)c1`, the “log(1/MIC)” value [1] was -1.825, the MIC [1] was 66.8 µg/mL (≈ 254 µM) and the logP ([2]; logP) was -1.2.
For `CCCCCCCCC(=O)NNC(=O)c1ccncc1`, the “log(1/MIC)” value [1] was 1.602, the MIC [1] was 0.03 µg/mL (≈ 0.108 µM) and the logP ([2]; logP) was 2.22.
In the case of `CCCc1cc(C(=O)NN)ccn1`, the “log(1/MIC)” value [1] is reported as -0.9953, the MIC [1] is reported as 9.89 µg/mL (≈ 55.2 µM) and the logP ([2]; logP) is reported as -0.615.
For `C=Cc1cc(C(=O)NN)ccn1`, the “log(1/MIC)” value [1] was -0.7567, the MIC [1] was 5.71 µg/mL (≈ 35 µM) and the logP ([2]; logP) was -1.69.
In the case of `CC(C)NNC(=O)c1ccncc1` [IPRONIAZID], the “log(1/MIC)” value [3] is reported as 0.4, the MIC [3] is reported as 0.4 µg/mL (≈ 2.23 µM) and the logP [2] is reported as -1.248.
In the case of `CN(C)NC(=O)c1ccco1`, the “log(1/MIC)” value [3] is reported as -2.48, the MIC [3] is reported as 300 µg/mL (≈ 1950 µM) and the logP ([2]; logP) is reported as 0.653.
In the case of `CC(=O)NNC(=O)c1ccco1`, the “log(1/MIC)” value [3] is reported as -2.78, the MIC [3] is reported as 600 µg/mL (≈ 3570 µM) and the logP ([2]; logP) is reported as -1.26.
For `N/C(COc1ccc(Cl)cc1)=N\NC(=O)c1ccncc1`, the “log(1/MIC)” value [1] was -0.494, the MIC [1] was 3.12 µg/mL (≈ 10.2 µM) and the logP ([2]; logP) was 1.34.
For `NNC(=O)c1ccccc1[N+](=O)[O-]`, the “log(1/MIC)” value [3] was -2.48, the MIC [3] was 300 µg/mL (≈ 1660 µM) and the logP ([2]; logP) was -1.1.
With `NNC(=O)c1ccnc(F)c1` the “log(1/MIC)” value [3] was -1.61, the MIC [3] was 40.3 µg/mL (≈ 260 µM) and the logP ([2]; logP) was -2.18.
With `CCOc1cc(C(=O)NN)ccn1` the “log(1/MIC)” value [3] was -1.91, the MIC [3] was 81.5 µg/mL (≈ 450 µM) and the logP ([2]; logP) was -1.5.
With `NNC(=O)c1ccnc2ccccc12` the “log(1/MIC)” value [3] was -1.9, the MIC [3] was 80 µg/mL (≈ 427 µM) and the logP ([2]; logP) was -1.35.
In the case of `C/C(=N\NC(=O)c1ccncc1)c1cccc(CN(C)C)c1O`, the “log(1/MIC)” value [1] is reported as 0.09006, the MIC [1] is reported as 0.81 µg/mL (≈ 2.59 µM) and the logP ([2]; logP) is reported as 1.19.
For `CCN(CC)CCN(C)c1ccc(/C=N/NC(=O)c2ccncc2)cc1`, the “log(1/MIC)” value [3] was 1.1, the MIC [3] was 0.08 µg/mL (≈ 0.226 µM) and the logP ([2]; logP) was 2.43.
With `CCCCC/C(C)=N/NC(=O)c1ccncc1` the “log(1/MIC)” value [3] was 1.52, the MIC [3] was 0.03 µg/mL (≈ 0.129 µM) and the logP ([2]; logP) was 0.589.
With `Cc1cnccc1C(=O)NN` the “log(1/MIC)” value [3] was -2.3, the MIC [3] was 200 µg/mL (≈ 1320 µM) and the logP ([2]; logP) was -1.67.
With `CC(=O)NCc1cc(C(=O)NN)ccn1` the “log(1/MIC)” value [1] was -1.704, the MIC [1] was 50.6 µg/mL (≈ 243 µM) and the logP ([2]; logP) was -3.75.
With `CCc1cc(C(=O)NN)ccn1` the “log(1/MIC)” value [1] was -0.5423, the MIC [1] was 3.49 µg/mL (≈ 21.1 µM) and the logP ([2]; logP) was -1.14.
For `CCC(CC)=NNC(=O)c1ccncc1`, the “log(1/MIC)” value [3] was 1.7, the MIC [3] was 0.02 µg/mL (≈ 0.0974 µM) and the logP ([2]; logP) was -0.469.
With `Cc1cccc(OC/C(N)=N/NC(=O)c2ccncc2)c1` the “log(1/MIC)” value [1] was -0.494, the MIC [1] was 3.12 µg/mL (≈ 11 µM) and the logP ([2]; logP) was 1.27.
In the case of `CCC(C)NNC(=O)c1ccncc1` (configuration not stated), the “log(1/MIC)” value [3] is reported as 0.4, the MIC [3] is reported as 0.4 µg/mL (≈ 2.07 µM) and the logP ([2]; logP) is reported as -0.719.
With `C/C(=N\NC(=O)c1ccncc1)c1cccc(CN2CCN(c3ccc(F)cc3)CC2)c1O` the “log(1/MIC)” value [1] was 0.3963, the MIC [1] was 0.4 µg/mL (≈ 0.894 µM) and the logP ([2]; logP) was 3.68.
For `N/C(COc1cccc(Cl)c1)=N\NC(=O)c1ccncc1`, the “log(1/MIC)” value [1] was -0.494, the MIC [1] was 3.12 µg/mL (≈ 10.2 µM) and the logP ([2]; logP) was 1.34.
With `NNC(=O)c1ccccn1` the “log(1/MIC)” value [3] was 0.82, the MIC [3] was 0.15 µg/mL (≈ 1.09 µM) and the logP ([2]; logP) was -1.95.
In the case of `NNC(=O)Cc1ccccc1`, the “log(1/MIC)” value [3] is reported as -1.08, the MIC [3] is reported as 12 µg/mL (≈ 79.9 µM) and the logP ([2]; logP) is reported as -1.22.
For `NNC(=O)c1ccc([N+](=O)[O-])o1`, the “log(1/MIC)” value [3] was 0.1, the MIC [3] was 0.8 µg/mL (≈ 4.68 µM) and the logP ([2]; logP) was -0.396.
In the case of `CC(C)/C=N\NC(=O)c1ccco1`, the “log(1/MIC)” value [3] is reported as 0.82, the MIC [3] is reported as 0.15 µg/mL (≈ 0.832 µM) and the logP ([2]; logP) is reported as 1.19.
With `C/C(=N\NC(=O)c1ccncc1)c1cccc(CN2CCN(Cc3ccccc3)CC2)c1O` the “log(1/MIC)” value [1] was 0.3951, the MIC [1] was 0.4 µg/mL (≈ 0.902 µM) and the logP ([2]; logP) was 3.83.
With `C/C(=N\NC(=O)c1ccncc1)c1cccc(CN2CCN(c3ccccn3)CC2)c1O` the “log(1/MIC)” value [1] was 0.3979, the MIC [1] was 0.4 µg/mL (≈ 0.929 µM) and the logP ([2]; logP) was 2.59.
In the case of `NNC(=O)c1ccccc1` [BENZOIC ACID HYDRAZIDE], the “log(1/MIC)” value [3] is reported as 0.22, the MIC [3] is reported as 0.6 µg/mL (≈ 4.41 µM) and the logP [2] is reported as -0.845.
With `NNC(=O)c1c[nH]cn1` the “log(1/MIC)” value [3] was -0.9, the MIC [3] was 8 µg/mL (≈ 63.4 µM) and the logP ([2]; logP) was -2.85.
For `CC(C)/C=N\NC(=O)c1ccncc1`, the “log(1/MIC)” value [3] was 1, the MIC [3] was 0.1 µg/mL (≈ 0.523 µM) and the logP ([2]; logP) was -0.998.
In the case of `CCN(CC)c1ccc(/C=N/NC(=O)c2ccncc2)cc1`, the “log(1/MIC)” value [3] is reported as 0.22, the MIC [3] is reported as 0.6 µg/mL (≈ 2.02 µM) and the logP ([2]; logP) is reported as 2.53.
For `C/C(=N\NC(=O)c1ccncc1)c1cccc(CN2CCCC2)c1O`, the “log(1/MIC)” value [1] was -0.2108, the MIC [1] was 1.62 µg/mL (≈ 4.79 µM) and the logP ([2]; logP) was 1.99.
With `C/C(=N\NC(=O)c1ccncc1)c1cccc(CN2CCN(C)CC2)c1O` the “log(1/MIC)” value [3] was -0.52, the MIC [3] was 3.28 µg/mL (≈ 8.93 µM) and the logP ([2]; logP) was 1.99.
